In series [1] the test system is human buccal tissue model. In words: Human buccal tissue permeability screening (EpiOral tissue model, HPLC of supernatant). To be noted: for Transmissibility (%): 30 minutes at 37° C.; for Peak Area by HPLC of Peptides in Solution, Post-overlay: supernatant above cells after 30 minutes at 37° C.
Experimental: (§1) A human buccal tissue model was used for in vitro testing of the permeability of a number of disulphide-linked homodimers.
(§2) Human oral mucosa tissue models were prepared in accordance with the standard protocols of a commercial reagent supplier (EpiOral™, MatTek Corporation; for details see http://www.mattek.com/epioral/applications/drug-delivery; see also for example Thakur et al., Drug Development and Industrial Pharmacy, 2007, 33(5), pages 513-52). In brief, the tissue models were prepared in tissue culture wells of 24-well plates containing an inner well (insert) with a microporous membrane base coated with an extracellular matrix preparation, on which the human mucosal cells were seeded. The inner well was submerged in the reagent supplier's recommended serum free culture medium which permeates through the microporous membrane to feed the cells in the insert. The cells were submerged in the culture medium for a few days, after insertion of the inner wells into the tissue culture wells and permeation of the culture medium into the inner wells, in accordance with the reagent supplier's recommendation. The inserts containing the developing tissues were then elevated to the air/liquid interface which induces stratification and differentiation. The resulting human buccal cell cultures were stratified, three dimensional tissues comprising 25-30 cell layers, non-cornified with nucleated cells extending up to the apical surface and with histology similar to that of native buccal tissue.
(§3) The buccal tissue culture inserts were transferred from the original tissue culture 24-well plates (maintained at 4° C. in sealed bags containing 5% CO2) under sterile conditions into wells of a fresh 24-well plate containing 1.0 ml of the reagent supplier's recommended serum free medium pre-warmed to 37° C. The plate was then incubated in a humidified incubator at 37° C. in a 5% CO2 atmosphere for one hour as a pre-equilibration procedure prior to dosing.
(§4) After removal of the pre-equilibrated plate from the incubator, any culture medium over the surface of the tissue was carefully removed and replaced with 100 μL of appropriately diluted homodimer solution in reagent supplier's recommended serum free culture medium (stock homodimer-containing medium). The plate was then incubated for a further 30 minutes at 37° C. in a 5% CO2 atmosphere. The plate was removed from the incubator and supernatant samples were taken from above the cells, inside the insert, and analysed by HPLC. The main peak areas for each tested peptide in the supernatants were compared to the corresponding peak areas for the tested peptides in the relevant pre-incubation samples of the stock homodimer-containing medium.
The test system of a further series is human diabetic patients. In words: Therapeutic efficacy testing in human diabetic patients (HbA1c). The series is classed as in vivo. To be noted: for HbA1c % Change: day 35 vs baseline; for HbA1c % Baseline (Mean ± sd.): before first dose. Here is the method:
Homodimer C was tested in human clinical trials to determine therapeutic efficacy of transmucosal delivery. Both intraoral (sublingual) delivery and peroral delivery were tested. Two further groups of patients were administered an injectable preparation of Homodimer C to allow a comparison of the effects of transmucosal delivery to the effects of injection delivery.
Diabetic patients treated with oral anti-diabetic drugs (e.g. sulfonylurea type drugs) or insulin were recruited and randomised to four patient groups: two injectable peptide groups (Groups 1 and 2) and to two oral peptide dosage groups, for delivery of Homodimer C either by sublingual administration (Group 3) or via enteric coated capsules (Group 4).
Each group was administered five doses of Homodimer C. Homodimer C was administered once weekly (at days 0, 7, 14, 21 and 28 of the study) at a dose of 2 mg (which equates to approximately 0.03 mg/kg for a notional 70 kg subject) for all four groups. The homodimer injections were intramuscular, generally into the upper arm of the subjects. The patients' current treatment was not withdrawn during the study. HbA1c levels were determined in advance of the first dose and at day 35 of the study.

Series [2] concerns human buccal tissue model.
Experimental: as §1, §2, §3, §4
[3] abbreviates: Table 1, stock homodimer-containing medium before incubation.

The values that follow come from patent publication US20210060118A1, “THERAPEUTIC HOMODIMER AND USES THEREOF” (priority 2014, published 2021).

Where “and” joins values, the source holds several entries; their conditions need not be identical. Identical values can stand only once. Entries after “also recorded” stand apart in the source; their conditions may differ. Like-named read-outs stand apart in the source and are kept apart here. Bridge positions count the residues as written; N and C are the ends. Peptide text beside a SMILES is read from it. I, II: the chains in the order shown.

Regarding `CC(C)C[C@H](NC(=O)CNC(=O)[C@H](CCCNC(=N)N)NC(=O)[C@H](CC(C)C)NC(=O)[C@@H](N)CSSC[C@H](N)C(=O)N[C@@H](CC(C)C)C(=O)N[C@@H](CCCNC(=N)N)C(=O)NCC(=O)N[C@@H](CC(C)C)C(=O)N[C@@H](CC(C)C)C(=O)N1CCC[C@H]1C(=O)N[C@@H](CC(=O)O)C(=O)N[C@@H](Cc1ccc(O)cc1)C(=O)O)C(=O)N[C@@H](CC(C)C)C(=O)N1CCC[C@H]1C(=O)N[C@@H](CC(=O)O)C(=O)N[C@@H](Cc1ccc(O)cc1)C(=O)O` [Homodimer B, reference compound] (I: H-CLRGLLPDY-OH / II: H-CLRGLLPDY-OH; disulfide I:1-II:1; N-terminus and C-terminus assumed), in series [1], the “transmissibility (absorption) across the human buccal tissue surface, in words” value (from here on “transmissibility … in words”) is listed as “did not demonstrate any transmissibility”. In series [1] (Table 1), the “Transmissibility (%)” value is reported as 0% and the “Peak Area by HPLC of Peptides in Solution, Post-overlay” value (from here on “Peak Area by HPLC … Post-overlay”) is reported as 2396. The “Peak Area by HPLC of Peptides in Solution, Pre-overlay” value (from here on “Peak Area by HPLC … Pre-overlay”) in series [1] (setting [3]) came out at 2023.
On to `CC(C)C[C@H](NC(=O)[C@@H]1CCCN1C(=O)[C@H](Cc1ccc(O)cc1)NC(=O)[C@H](CO)NC(=O)[C@H](CC(N)=O)NC(=O)[C@H](Cc1ccc(O)cc1)NC(=O)[C@H](CCC(N)=O)NC(=O)[C@H](CCC(N)=O)NC(=O)[C@@H](N)CSSC[C@H](N)C(=O)N[C@@H](CCC(N)=O)C(=O)N[C@@H](CCC(N)=O)C(=O)N[C@@H](Cc1ccc(O)cc1)C(=O)N[C@@H](CC(N)=O)C(=O)N[C@@H](CO)C(=O)N[C@@H](Cc1ccc(O)cc1)C(=O)N1CCC[C@H]1C(=O)N[C@@H](CC(C)C)C(=O)N[C@H](C(=O)O)[C@@H](C)O)C(=O)N[C@H](C(=O)O)[C@@H](C)O` [Homodimer C] (I: H-CQQYNSYPLT-OH / II: H-CQQYNSYPLT-OH; disulfide I:1-II:1; N-terminus assumed), for which the “efficacy of intraoral (sublingual) or peroral routes compared with parenteral (injection)” value in the series on human diabetic patients (2 mg once weekly x5) is given as “significantly more effective”. For the same compound, the “HbA1c % Change” value in the series with human diabetic patients (Group 1, intramuscular injection 2 mg once weekly x5, insulin only, P = 0.045) is listed as −0.60%; in the series with human diabetic patients (Group 2, intramuscular injection 2 mg once weekly x5, P = 0.033) it was −0.75%; with human diabetic patients (Group 3, sublingual 2 mg once weekly x5, P = 0.005), −1.33%; in the series on human diabetic patients (Group 4, enteric coated capsule (peroral) 2 mg once weekly x5, P = 0.016) it was −1.18%. Moreover, the “HbA1c % Day 35 (Mean ± sd.)” value in the series on human diabetic patients (Group 1, intramuscular injection 2 mg once weekly x5, previous treatment insulin only, n = 17) is given as 10.74 ± 2.0%; in the series on human diabetic patients (Group 2, intramuscular injection 2 mg once weekly x5, oral anti-diabetics and/or insulin, n = 18), 9.57 ± 1.79%; in the series on human diabetic patients (Group 3, sublingual 2 mg once weekly x5, n = 7), 7.85 ± 2.03%; in the series with human diabetic patients (Group 4, enteric coated capsule (peroral) 2 mg once weekly x5, n = 7) it was 8.12 ± 1.04%. Also, the “HbA1c % Baseline (Mean ± sd.)” value worked out at 11.34 ± 2.6% in the series with human diabetic patients (Group 1, intramuscular injection, previous treatment insulin only, n = 17); 10.32 ± 2.24% in the series on human diabetic patients (Group 2, intramuscular injection, previous oral anti-diabetics and/or insulin, n = 18); 9.18 ± 2.64% in the series on human diabetic patients (Group 3, sublingual, previous oral anti-diabetics and/or insulin, n = 7); 9.30 ± 1.65% with human diabetic patients (Group 4, enteric coated capsule (peroral), previous oral anti-diabetics and/or insulin, n = 7). Moreover, in the series with human diabetic patients (doses of approximately 2 mg (approximately 0.03 mg/kg)), the “side-effects in human patients” value is “without significant undesirable side-effects”. The “mean HbA1c levels at day 35 relative to mean baseline, in words” value in the series with human diabetic patients (each of Groups 1-4) is recorded as “significantly reduced”. The “transmissibility … in words” value in series [1] is on record as “transmitted efficiently; also recorded: efficient uptake”. For the same compound, the “Transmissibility (%)” value in series [1] (Table 1) is 94.1%; in series [1] (Table 2, triplicate cultures), 93.3% and 84.5% and 100%. The “Peak Area by HPLC … Pre-overlay” value in series [1] (setting [3]) came to 4142; in series [1] (Table 2, triplicate cultures, stock medium before incubation), 4142. For the same compound, the “Peak Area by HPLC … Post-overlay” value in series [1] (Table 1) is listed as 243.
Take `CC[C@H](C)[C@H](NC(=O)[C@H](CC(N)=O)NC(=O)[C@@H](N)CSSC[C@H](N)C(=O)N[C@@H](CC(N)=O)C(=O)N[C@H](C(=O)N[C@@H](Cc1ccc(O)cc1)C(=O)N1CCC[C@H]1C(=O)N[C@@H](CO)C(=O)N[C@@H](CC(=O)O)C(=O)N[C@@H](CO)C(=O)N[C@@H](Cc1ccc(O)cc1)C(=O)N[C@H](C(=O)N[C@@H](CC(N)=O)C(=O)N[C@@H](Cc1ccc(O)cc1)C(=O)N[C@@H](CC(N)=O)C(=O)N[C@@H](CCC(N)=O)C(=O)N[C@@H](CCCCN)C(=O)N[C@@H](Cc1ccccc1)C(=O)N[C@@H](CCCCN)C(=O)N[C@@H](CC(=O)O)C(=O)O)[C@@H](C)O)[C@@H](C)CC)C(=O)N[C@@H](Cc1ccc(O)cc1)C(=O)N1CCC[C@H]1C(=O)N[C@@H](CO)C(=O)N[C@@H](CC(=O)O)C(=O)N[C@@H](CO)C(=O)N[C@@H](Cc1ccc(O)cc1)C(=O)N[C@H](C(=O)N[C@@H](CC(N)=O)C(=O)N[C@@H](Cc1ccc(O)cc1)C(=O)N[C@@H](CC(N)=O)C(=O)N[C@@H](CCC(N)=O)C(=O)N[C@@H](CCCCN)C(=O)N[C@@H](Cc1ccccc1)C(=O)N[C@@H](CCCCN)C(=O)N[C@@H](CC(=O)O)C(=O)O)[C@@H](C)O` [Homodimer A] (I: H-CNIYPSDSYTNYNQKFKD-OH / II: H-CNIYPSDSYTNYNQKFKD-OH; disulfide I:1-II:1; N-terminus and C-terminus assumed): in series [2], the “Peak Area by HPLC … Post-overlay” value is 4439; the “Peak Area by HPLC … Pre-overlay” value was 5398; the “Transmissibility (%)” value is 17.7%; the “transmissibility … in words” value is listed as “only poor transmissibility”.
